# Source: US20250127813A1, “COMBINATION DRUG” (OTSUKA PHARMACEUTICAL CO., LTD., priority 2021, published 2025)
# “Also recorded” adds a separate entry of the source.
# Test system: NALM6-luc2
# Method: 6-week-old NOG mice produced by In-Vivo Science Co., Ltd., were obtained, and tumor cells were intravenously transplanted into the mice at 7 weeks of age to prepare tumor-bearing mice. The day before the transplantation, busulfex (BSF) was intraperitoneally administered at 20 mg/kg. During the breeding period, the mice were housed with 5 mice per group and bred in a P2A breeding room set to a temperature of 24° C. (actual measurement: 19.7 to 25.0° C.), humidity of 50% (actual measurement: 38.6 to 58.5%), and illumination of 12 hours/day (8:00 a.m. to 8:00 p.m.). During the breeding period, the mice were allowed free access to radiation-sterilized solid feed for mice (CL-2, produced by Clea Japan, Inc.) and autoclave-sterilized tap water placed in a water bottle.
# CD19 CAR-T cells were intravenously administered once according to the group constitution on the same day as grouping. The IAP antagonist also started to be administered on the same day as grouping and was orally or intravenously administered according to the group constitution table.
# The evaluation period was set to 3 to 4 weeks. Grouping and pharmacological evaluation were performed based on tumor luminescence values as determined by IVIS (trademark). Luminescence value measurement by IVIS (trademark) and body weight measurement were performed twice a week.
# For NALM6-luc2, after resuspension, a portion of the cell suspension was taken, dead cells were stained with AOPI Staining Solution, and the number of viable cells was counted with a blood cell measuring device. A cell suspension was prepared by diluting the cells with RPMI 1640 to 1×10^7 cells/mL, based on the measurement results of viable cell count of the cells. Similarly, in a low tumor volume system, a cell suspension was prepared by diluting the cells with serum-free RPMI 1640 to achieve a concentration of 1×10^6 cells/mL.
# After the mice were retained using a retainer, a cell suspension was transplanted at 1×10^6 cells/0.1 mL/body using a 27G Myjector (1 mL, produced by Terumo Corporation) to the tail vein of each mouse with no anesthesia. In the low tumor volume system, a cell suspension at 1×10^5 cells/0.1 mL/body was transplanted.
# In accordance with the dosing regimen shown in FIG. 6, NALM6-luc2 was transplanted the day after treating the […] with busulfex. On the third day after the transplantation, luminescence values were measured using the IVIS (trademark) Lumina X5 In-Vivo imaging system (produced by PerkinElmer, Co., Ltd.). Using the luminous values as an indicator and using SAS software R9.4 (produced by SAS Institute Japan), the mice were divided into groups of 5 mice each by the stratified random sampling method.
# 1) A suspension of CD19 CAR-T cells was administered to the tail vein at the time of grouping. For the dosage, the number of viable CD19 CAR-T cells was counted and a cell suspension prepared according to the group constitution table was administered once at 0.1 mL/body. For the administration, a Myjector syringe with a 27G needle was used.
# 5) Birinapant was intraperitoneally administered at a dose of 10 mL/kg according to the group composition table. Tolinapant, LCL161, and AT406 were orally administered at a dose of 10 mL/kg according to the group composition table using a sonde in the same manner. For intraperitoneal administration, an insulin syringe with a 26G needle was used in place of the sonde. For oral administration, a needle was used in place of the sonde to administer each drug.
# VivoGlo™-luciferin (produced by Promega) was dissolved in D-PBS(−) to achieve a concentration of 30 mg/mL and then cryopreserved at −20° C. under light-shielded conditions. On the day of measurement, dissolved VivoGlo™-luciferin was diluted with an equivalent amount of D-PBS(−) and stored at room temperature under light-shielded conditions until use for testing. Based on the body weight measured in advance, VivoGlo™-luciferin was intraperitoneally administered in a volume of 10 mL/kg.
# [1] = LCL161 30 mg/kg qw po + CD19 CAR-T 1×10^5 cells/body iv
structure (smiles),measurement,setting,value
"CN[C@@H](C)C(=O)N[C@H]1CN(C(=O)CC(C)C)CC[C@H]2CC[C@@H](C(=O)NC(c3ccccc3)c3ccccc3)N2C1=O [AT406, reference compound]",effect of AT406 + 1×10^5 cells CD19 CAR-T compared with 1×10^6 cells CD19 CAR-T alone,AT406 100 mg/kg qd po + CD19 CAR-T 1×10^5 cells/body iv,an effect equivalent to the effect achieved by 1×10^6 cells of CD19 CAR-T alone was observed on day 14 and thereafter
same,combination effect of AT406 and CD19 CAR-T,"AT406 100 mg/kg qd po + CD19 CAR-T 1×10^5 cells/body iv, 100 mg/kg",a combination effect was observed on day 10 and thereafter; also recorded: showed a combination effect with CD19 CAR-T; also recorded: a combination effect profile similar to that of tolinapant
same,efficacy of AT406 administered alone,"AT406 alone, 100 mg/kg, daily oral administration",showed no efficacy
"CC[C@H](NC(=O)[C@H](C)NC)C(=O)N1C[C@@H](O)C[C@H]1Cc1c(-c2[nH]c3cc(F)ccc3c2C[C@@H]2C[C@H](O)CN2C(=O)[C@H](CC)NC(=O)[C@H](C)NC)[nH]c2cc(F)ccc12 [Birinapant, reference compound]",combination effect of birinapant and CD19 CAR-T compared to CD19 CAR-T alone,birinapant 12 mg/kg q3-4d ip + CD19 CAR-T 1×10^5 cells/body iv,did not increase antitumor effects
same,efficacy of birinapant administered alone,"birinapant alone, 12 mg/kg, intraperitoneal administration twice a week",showed no efficacy
"CN[C@@H](C)C(=O)N[C@H](C(=O)N1CCC[C@H]1c1nc(C(=O)c2ccc(F)cc2)cs1)C1CCCCC1 [LCL161, reference compound]",death of mice under LCL161 alone,LCL161 30 mg/kg orally twice a week,at least half of the mice died
same,effect of LCL161 + 1×10^5 cells CD19 CAR-T compared with 1×10^6 cells CD19 CAR-T alone,[1],an effect equivalent to the effect achieved by using 1×10^6 cells of CD19 CAR-T alone was observed on day 14 and thereafter
same,highest efficacy of combined use of LCL161 compared with combined use of tolinapant,[1],lower than the efficacy achieved by the combined use of tolinapant
same,combination effect of LCL161 and CD19 CAR-T,"LCL161 30 mg/kg qw po + CD19 CAR-T 1×10^5 cells/body iv, 30 mg/kg",a significant combination effect was observed on day 7 and thereafter; also recorded: showed a combination effect with CD19 CAR-T
same,"toxicity of LCL161 (death, weight loss) in the combination test","LCL161 30 mg/kg qw po, combination test with CD19 CAR-T, 30 mg/kg",highly toxic; also recorded: at least half of the animals died due to LCL161; also recorded: showed such toxicity as to confirm weight loss and death
same,efficacy of LCL161 administered alone,"LCL161 alone, 30 mg/kg orally twice a week",no effects were exhibited
